From patent publication US12570642B2, “GLP-IR modulating compounds” (Gilead Sciences, Inc., priority 2021, dated 2026)

Biological target: GLP-1R (Homo sapiens, UniProt P43220)
Assay: GLP-1R Activation - cAMP Assay
Type: cell-based
Conditions: each compound run on one of the two cAMP assays (Assay 1 or Assay 2, not specified)
Protocol: GLP-1R Activation—cAMP Assay 1
GLP-1R activation by compounds of the present disclosure were quantified by measuring cAMP increase in CHO cells stably expressing GLP-1R (MultiSpan product #C1267-1a). The cells were harvested and plated in growth medium (DMEM/F-12 (Corning product #10-090-CV) supplemented with 10% FBS (HyClone product #SH30071-03), penicillin/streptomycin (Corning product #30-002CI) and 10 μg/ml puromycin (Gibco product #A11138-03)) at 1,000 cells/well in a 384-well plate (Greiner product #781080). The cells were then incubated overnight at 37° C., 5% CO2. The next day, the medium was removed and the cells were washed with DPBS (Corning product #21-031-CM) before adding the assay medium (HBSS, Corning product #21-023-CV) with 20 mM Hepes (Gibco product #15630-080) and 0.1% BSA (Rockland Immunochemicals product #BSA-1000)). Following the medium change, the cells were incubated for 1 hour at 37° C., 5% CO2. The tested GLP-1 compound was added to the cells in a 10-point dose response followed by a 30 minutes incubation at 37° C., 5% CO2. cAMP concentration increase was then detected using Cisbio's cAMP Gs Dynamic Kit (product #62AM4PEC) according to the manufacturer's protocol. The response was plotted against the log of the agonist concentration and fitted to a sigmoidal equation to determine the EC50.

[1] = cAMP increase in CHO cells stably expressing GLP-1R

Chain of GLP-1R (P43220 24-463): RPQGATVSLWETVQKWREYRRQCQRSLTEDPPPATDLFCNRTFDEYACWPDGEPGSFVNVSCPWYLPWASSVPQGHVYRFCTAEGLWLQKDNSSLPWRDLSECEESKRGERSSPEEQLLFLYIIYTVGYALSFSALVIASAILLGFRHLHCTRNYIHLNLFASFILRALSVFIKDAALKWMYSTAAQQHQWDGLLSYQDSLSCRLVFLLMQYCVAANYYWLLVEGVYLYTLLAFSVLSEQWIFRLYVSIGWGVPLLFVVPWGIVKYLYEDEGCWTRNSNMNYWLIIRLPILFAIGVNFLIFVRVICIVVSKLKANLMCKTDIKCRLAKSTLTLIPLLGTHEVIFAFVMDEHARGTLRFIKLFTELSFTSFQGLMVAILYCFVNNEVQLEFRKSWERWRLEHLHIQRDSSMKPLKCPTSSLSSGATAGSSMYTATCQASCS

SMILES | EC50 [1] [nM] | EC50 ([…]) [nM]
COCCn1c(Cc2c(F)cc(-c3cccc(OCc4ccc(C#N)cc4F)n3)c(F)c2F)nc2c(F)cc(C(=O)O)cc21 [Example 292, 2-(4-(6-((4-cyano-2-fluorobenzyl)oxy)pyridin-2-yl)-2,3,6-trifluorobenzyl)-4-fluoro-1-(2-methoxyethyl)-1H-benzo[d]imidazole-6-carboxylic acid] | 0.133 | 
CC1(C)COCC1n1c(Cc2cc(F)c(-c3nccc(OCc4ccc(Cl)cc4F)n3)cc2F)nc2c(F)cc(C(=O)O)cc21 (centres unmarked) [Example 348, 2-(4-(4-((4-chloro-2-fluorobenzyl)oxy)pyrimidin-2-yl)-2,5-difluorobenzyl)-1-(4,4-dimethyltetrahydrofuran-3-yl)-4-fluoro-1H-benzo[d]imidazole-6-carboxylic acid] | 0.55 | 
CC1(C)COC[C@H]1n1c(Cc2ccc(-c3ccc(F)c(OCc4ccc(-n5ccnn5)cc4F)n3)cc2F)nc2ccc(C(=O)O)cc21 [Example 236, (S)-1-(4,4-dimethyltetrahydrofuran-3-yl)-2-(2-fluoro-4-(5-fluoro-6-((2-fluoro-4-(1H-1,2,3-triazol-1-yl)benzyl)oxy)pyridin-2-yl)benzyl)-1H-benzo[d]imidazole-6-carboxylic acid] | 0.203 | 
CC1(C)COCC1n1c(Cc2cc(F)c(-c3cccc(OCc4ccc(C#N)cc4F)n3)cc2F)nc2c(Br)cc(C(=O)O)cc21 (centres unmarked) [Example 13, 4-bromo-2-(4-(6-((4-cyano-2-fluorobenzyl)oxy)pyridin-2-yl)-2,5-difluorobenzyl)-1-(4,4-dimethyltetrahydrofuran-3-yl)-1H-benzo[d]imidazole-6-carboxylic Acid] | 0.19 | 
N#Cc1ccc(COc2cccc(-c3cc(F)c(Cc4nc5ccc(C(=O)O)cc5n4[C@H]4C[C@H]5CO[C@@H]4C5)cc3F)n2)c(F)c1 [Example 71, 1-((1R,4R,6S)-2-oxabicyclo[2.2.1]heptan-6-yl)-2-(4-(6-((4-cyano-2-fluorobenzyl)oxy)pyridin-2-yl)-2,5-difluorobenzyl)-1H-benzo[d]imidazole-6-carboxylic Acid] | 1.19 | 
CC1(C)COC[C@H]1n1c(Cc2cc(F)c(-c3cccc(OCc4ccc(C#N)cc4)n3)cc2F)nc2c(F)cc(C(=O)O)cc21 [Example 376, (S)-2-(4-(6-((4-cyanobenzyl)oxy)pyridin-2-yl)-2,5-difluorobenzyl)-1-(4,4-dimethyltetrahydrofuran-3-yl)-4-fluoro-1H-benzo[d]imidazole-6-carboxylic acid] | 0.056 | 
Cn1cc(-c2cc(F)c(COc3cccc(-c4cc(F)c(Cc5nc6ccc(C(=O)O)cc6n5C5COCC5(C)C)cc4F)n3)cn2)cn1 (centres unmarked) [Example 90] | 0.7 | 
CC1(C)COC[C@H]1n1c(Cc2cc(F)c(-c3cccc(OCc4ccc(-n5ccnn5)cc4F)n3)cc2F)nc2ccc(C(=O)O)cc21 [Example 167, (S)-2-(2,5-difluoro-4-(6-((2-fluoro-4-(1H-1,2,3-triazol-1-yl)benzyl)oxy)pyridin-2-yl)benzyl)-1-(4,4-dimethyltetrahydrofuran-3-yl)-1H-benzo[d]imidazole-6-carboxylic Acid] | 0.027 | 
CC1(C)COC[C@H]1n1c(Cc2cc(F)c(-c3ccnc(OCc4ccc(C#N)cc4F)n3)cc2F)nc2c(Cl)cc(C(=O)O)cc21 [Example 129, (S)-4-chloro-2-(4-(2-((4-cyano-2-fluorobenzyl)oxy)pyrimidin-4-yl)-2,5-difluorobenzyl)-1-(4,4-dimethyltetrahydrofuran-3-yl)-1H-benzo[d]imidazole-6-carboxylic Acid] | 0.271 | 
CC1(C)COC[C@H]1n1c(Cc2cc(F)c(-c3cccc(OCc4cnc(-n5ccnn5)cc4C(F)(F)F)n3)cc2F)nc2ccc(C(=O)O)cc21 [Example 414, (S)-2-(4-(6-((6-(1H-1,2,3-triazol-1-yl)-4-(trifluoromethyl)pyridin-3-yl)methoxy)pyridin-2-yl)-2,5-difluorobenzyl)-1-(4,4-dimethyltetrahydrofuran-3-yl)-1H-benzo[d]imidazole-6-carboxylic acid] | 0.261 | 
CC1(C)COC[C@H]1n1c(Cc2cc(F)c(-c3cccc(OCc4ccc(Cl)cc4)n3)cc2F)nc2ccc(C(=O)O)cc21 (single isomer, unassigned) [Example 385A] | 0.089 | 
CC1(C)COC[C@H]1n1c(Cc2cc(F)c(-c3nccc(OCc4ccc(C#N)cc4F)n3)cc2F)nc2c(F)cc(C(=O)O)cc21 [Example 206, (S)-2-(4-(4-((4-cyano-2-fluorobenzyl)oxy)pyrimidin-2-yl)-2,5-difluorobenzyl)-1-(4,4-dimethyltetrahydrofuran-3-yl)-4-fluoro-1H-benzo[d]imidazole-6-carboxylic acid] | 0.191 | 
O=C(O)c1ccc2nc(Cc3cc(F)c(-c4cccc(OCc5ccc6c(c5)CN(C(=O)C5CC5)C6)n4)cc3F)n(C[C@@H]3CCO3)c2c1 [Example 520, (S)-2-(4-(6-((2-(cyclopropanecarbonyl)isoindolin-5-yl)methoxy)pyridin-2-yl)-2,5-difluorobenzyl)-1-(oxetan-2-ylmethyl)-1H-benzo[d]imidazole-6-carboxylic acid] | 0.27 | 
CC1(C)COC[C@H]1n1c(Cc2cc(F)c(-c3cccc(OCc4ccc(C(F)F)cc4F)n3)cc2F)nc2ccc(C(=O)O)cc21 (single isomer, unassigned) [Example 383A] | 0.747 | 
N#Cc1ccc(COc2cccc(-c3ccc(Cc4nc5ccc(C(=O)O)cc5n4[C@H]4CCOC4)c(F)c3)n2)c(F)c1 [Example 210, (S)-2-(4-(6-((4-cyano-2-fluorobenzyl)oxy)pyridin-2-yl)-2-fluorobenzyl)-1-(tetrahydrofuran-3-yl)-1H-benzo[d]imidazole-6-carboxylic acid] | 14.1 | 
COC[C@H]1COC[C@H]1n1c(Cc2cc(F)c(-c3cccc(OCc4ccc(C#N)cc4F)n3)cc2F)nc2ccc(C(=O)O)cc21 (racemic) [Example 184, 2-(4-(6-((4-cyano-2-fluorobenzyl)oxy)pyridin-2-yl)-2,5-difluorobenzyl)-1-((3S,4S)-4-(methoxymethyl)tetrahydrofuran-3-yl)-1H-benzo[d]imidazole-6-carboxylic Acid] | 0.157 | 
CO[C@@H]1CC[C@@H]1n1c(Cc2cc(F)c(-c3cccc(OCc4ccc(C#N)cc4F)n3)cc2F)nc2ccc(C(=O)O)cc21 [Example 65, 2-(4-(6-((4-cyano-2-fluorobenzyl)oxy)pyridin-2-yl)-2,5-difluorobenzyl)-1-((1S,2R)-2-methoxycyclobutyl)-1H-benzo[d]imidazole-6-carboxylic Acid] | 5.05 | 
CO[C@H](C)Cn1c(Cc2cc(F)c(-c3cccc(OCc4ccc(C#N)cc4F)n3)cc2F)nc2c(F)cc(C(=O)O)cc21 [Example 355, (R)-2-(4-(6-((4-cyano-2-fluorobenzyl)oxy)pyridin-2-yl)-2,5-difluorobenzyl)-4-fluoro-1-(2-methoxypropyl)-1H-benzo[d]imidazole-6-carboxylic acid] | 1.21 | 
Cc1cc(Cc2nc3c(F)cc(C(=O)O)cc3n2[C@@H]2COCC2(C)C)c(Cl)cc1-c1ccnc(OCc2ccc(Cl)cc2)n1 [Example 212, (S)-2-(2-chloro-4-(2-((4-chlorobenzyl)oxy)pyrimidin-4-yl)-5-methylbenzyl)-1-(4,4-dimethyltetrahydrofuran-3-yl)-4-fluoro-1H-benzo[d]imidazole-6-carboxylic acid] | 0.379 | 
COC(=O)N1C[C@@H](n2c(Cc3cc(F)c(-c4cccc(OCc5ccc(C#N)cc5F)n4)cc3F)nc3ccc(C(=O)O)cc32)[C@H](OC)C1 [Example 86, 2-(4-(6-((4-cyano-2-fluorobenzyl)oxy)pyridin-2-yl)-2,5-difluorobenzyl)-1-((3R,4R)-4-methoxy-1-(methoxycarbonyl)pyrrolidin-3-yl)-1H-benzo[d]imidazole-6-carboxylic Acid] |  | 140
COCCn1c(Cc2cc(F)c(-c3cccc(OCc4cnc(-n5nc6c(n5)CCCC6)cc4Cl)n3)cc2F)nc2ccc(C(=O)O)cc21 [Example 567, 2-(4-(6-((4-chloro-6-(4,5,6,7-tetrahydro-2H-benzo[d][1,2,3]triazol-2-yl)pyridin-3-yl)methoxy)pyridin-2-yl)-2,5-difluorobenzyl)-1-(2-methoxyethyl)-1H-benzo[d]imidazole-6-carboxylic acid] | 100 | 
COC[C@H]1COC[C@H]1n1c(Cc2cc(F)c(-c3cccc(OCc4ccc(Cl)cc4F)n3)cc2F)nc2ccc(C(=O)O)cc21 [Example 542, 2-(4-(6-((4-chloro-2-fluorobenzyl)oxy)pyridin-2-yl)-2,5-difluorobenzyl)-1-((3S,4S)-4-(methoxymethyl)tetrahydrofuran-3-yl)-1H-benzo[d]imidazole-6-carboxylic acid] | 0.033 | 
Cc1cc(F)c(COc2cccc(-c3cc(F)c(Cc4nc5ccc(C(=O)O)cc5n4[C@@H]4COCC4(C)C)cc3F)n2)cc1Cl [Example 459, (S)-2-(4-(6-((5-chloro-2-fluoro-4-methylbenzyl)oxy)pyridin-2-yl)-2,5-difluorobenzyl)-1-(4,4-dimethyltetrahydrofuran-3-yl)-1H-benzo[d]imidazole-6-carboxylic acid] | 0.8 | 
